Data: publication PMC8071193, “Dual-Target Compounds against Type 2 Diabetes Mellitus: Proof of Concept for Sodium Dependent Glucose Transporter (SGLT) and Glycogen Phosphorylase (GP) Inhibitors” (Pharmaceuticals, 2021)
Where two headings read alike, the source gives them in different places.

What was measured:
SGLT2 = target: T1, SGLT2 (Homo sapiens, UniProt P31639); experiment: SGLT2 inhibition, 2-NBDG glucose uptake in SGLT2-overexpressing TSA201 cells; type: cell-based; conditions: for SGLT2 inhibition (in words): TSA201 cells, up to 1000 µM; for factor by which the 2-naphthyl derivative is the stronger inhibitor of SGLT2: comparisons 21a–21b and 24a–24b
T1 construct: host or cells: TSA201 (Human Embryonal Kidney) cells, lentiviral transduction, puromycin selection
T1 sequence (P31639 1-672): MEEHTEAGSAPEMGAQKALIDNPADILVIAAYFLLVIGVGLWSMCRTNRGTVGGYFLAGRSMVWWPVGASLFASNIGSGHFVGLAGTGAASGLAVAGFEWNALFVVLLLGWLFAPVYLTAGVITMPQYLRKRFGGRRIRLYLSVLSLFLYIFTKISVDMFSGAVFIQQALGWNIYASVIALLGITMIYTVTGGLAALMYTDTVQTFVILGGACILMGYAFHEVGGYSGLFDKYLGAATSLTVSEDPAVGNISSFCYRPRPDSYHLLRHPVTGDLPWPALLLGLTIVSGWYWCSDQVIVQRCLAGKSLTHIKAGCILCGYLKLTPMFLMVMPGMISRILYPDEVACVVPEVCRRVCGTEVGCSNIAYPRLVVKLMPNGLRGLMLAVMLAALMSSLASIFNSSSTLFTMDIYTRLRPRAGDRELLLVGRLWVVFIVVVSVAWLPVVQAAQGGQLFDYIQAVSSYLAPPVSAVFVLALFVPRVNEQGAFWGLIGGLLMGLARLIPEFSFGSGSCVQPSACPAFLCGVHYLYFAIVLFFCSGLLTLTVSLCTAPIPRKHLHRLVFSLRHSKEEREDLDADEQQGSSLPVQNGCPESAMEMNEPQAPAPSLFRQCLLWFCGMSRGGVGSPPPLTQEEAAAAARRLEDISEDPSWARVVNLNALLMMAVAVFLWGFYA
Description: (§1) Cells (100,000 cells, TSA201) were plated into each well of a 24-well plate and incubated overnight at 37 °C. […] Two wells were treated only with hexadimetrine bromide as a control. After 24 h of transfection, the medium was changed to fresh medium without antibiotics. Cells were collected and transferred into T-25 flasks after 3 days. On the fifth day, 10 µg/mL puromycin was added to select only the transfected cells. The nontransfected cells cannot survive this high concentration of antibiotic. To keep up the selection, the medium including 10 µg/mL puromycin was replaced every two days. The cells lived under puromycin pressure until the day of the experiments.
(§2) TSA201 cells (25,000) with and without overexpressed SGLT1 or 2 were put into poly-L-lysine (P5999, Sigma-Aldrich, St. Luis, MO, USA) treated wells of a 96-well plate. The next day, the cells were starved for 1 h with 90 µL glucose-free medium (D5036-10X1L Sigma-Aldrich, St. Luis, MO, USA) (with or without inhibitor). After starving, cells were treated with 100 µM 2-NBDG and incubated for 30 min (again with or without inhibitor). The incubation time of cells with possible inhibitors was 90 min altogether. After incubation, the medium was removed, the wells were washed with PBS twice, lysed with 100 µL lysis buffer (0.1 M KH2PO4 + 1% Triton-x, pH = 11), and stored at -20°C. […] Subsequently, the protein concentration was measured and NBDG uptake was normalized to protein amount.
(§3) After selecting optimal concentrations, each compound was tested at four different concentrations. […] To determine the specific effects of the compounds on SGLT1 or 2, the glucose uptake values in TSA201 cells without SGLT overexpression were subtracted from the values in TSA201 cell overexpressing SGLT. […] All calculations were prepared using the GraphPad Prism software (GraphPad Software, Inc., SanDiego, CA, USA). The data were plotted on a logarithmic scale as a function of inhibitor concentration. The IC50 values were calculated by non-linear regression analysis from sigmoidal dose-response curves. The results of kinetic experiments were calculated from at least three independent experiments. Each experiment contained four parallel samples that were averaged. The standard deviations were calculated based on the average values for the independent experiments.

[1] = target: T2, rabbit muscle glycogen phosphorylase b (rmGPb) (Oryctolagus cuniculus, UniProt P00489); experiment: Glycogen phosphorylase b enzyme kinetic inhibition assay (direction of glycogen synthesis); type: biochemical
T2 construct: Glycogen phosphorylase b was isolated from rabbit skeletal muscle; from tissue; host or cells: rabbit skeletal muscle
T2 sequence (P00489 1-843): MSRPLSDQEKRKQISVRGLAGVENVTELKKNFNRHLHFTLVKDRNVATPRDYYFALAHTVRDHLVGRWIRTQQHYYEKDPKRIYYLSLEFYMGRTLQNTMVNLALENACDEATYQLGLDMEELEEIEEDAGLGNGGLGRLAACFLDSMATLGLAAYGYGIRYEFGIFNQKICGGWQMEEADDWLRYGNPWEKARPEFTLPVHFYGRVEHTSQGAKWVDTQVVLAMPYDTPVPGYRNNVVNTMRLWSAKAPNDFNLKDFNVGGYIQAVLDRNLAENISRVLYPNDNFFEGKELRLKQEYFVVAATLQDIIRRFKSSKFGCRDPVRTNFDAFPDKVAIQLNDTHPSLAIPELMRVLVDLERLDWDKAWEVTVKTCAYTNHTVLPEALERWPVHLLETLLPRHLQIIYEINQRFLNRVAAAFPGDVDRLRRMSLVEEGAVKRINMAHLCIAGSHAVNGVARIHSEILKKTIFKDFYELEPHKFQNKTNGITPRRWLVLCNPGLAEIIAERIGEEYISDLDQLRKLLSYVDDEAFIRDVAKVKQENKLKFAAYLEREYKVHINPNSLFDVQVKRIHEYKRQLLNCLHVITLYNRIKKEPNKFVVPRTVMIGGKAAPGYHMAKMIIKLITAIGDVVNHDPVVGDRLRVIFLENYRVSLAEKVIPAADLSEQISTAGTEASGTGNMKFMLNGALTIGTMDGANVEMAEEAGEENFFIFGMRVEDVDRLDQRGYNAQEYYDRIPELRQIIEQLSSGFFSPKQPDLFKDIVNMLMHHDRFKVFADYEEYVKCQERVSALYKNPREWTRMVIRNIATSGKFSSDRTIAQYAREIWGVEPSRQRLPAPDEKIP
Text: The 2-NBDG (2-deoxy-2-[(7-nitro-2,1,3-benzoxadiazol-4-yl)amino]-D-glucose, cat. 11046) was purchased from Cayman Chemical Company (Ann Arbor, MI, USA). Lentivirus for SLC5A1 and SLC5A2 (NM_000343 for SGLT1, and NM-003041 for SGLT2) were obtained from Origene (Rockville, MD, USA). These expression vectors contain a puromycin resistance gene. […] CyQUANT^TM Cell Proliferation Assay Kit (2036547) was from Invitrogen (Carlsbad, CA, USA). Glycogen phosphorylase b was isolated from rabbit skeletal muscle according to the method of Fischer and Krebs.
Enzyme activity in the direction of glycogen synthesis was assayed. Kinetic data were collected using the muscle phosphorylase b (dephosphorylated, GPb) isoform. […] Enzymatic activities were presented in the form of a double-reciprocal plot (Lineweaver-Burk). The plots were analysed by a non-linear data analysis program. The inhibitor constants (Ki) were determined by secondary plots, replotting the slopes from the Lineweaver-Burk plot against the inhibitor concentrations. The means of standard errors for all calculated kinetic parameters averaged to less than 10% [78, 79].

SGLT1 = target: T3, SGLT1 (Homo sapiens, UniProt P13866); experiment: SGLT1 inhibition, 2-NBDG glucose uptake in SGLT1-overexpressing TSA201 cells; type: cell-based
T3 construct: host or cells: TSA201 (Human Embryonal Kidney) cells, lentiviral transduction, puromycin selection
T3 sequence (P13866 1-664): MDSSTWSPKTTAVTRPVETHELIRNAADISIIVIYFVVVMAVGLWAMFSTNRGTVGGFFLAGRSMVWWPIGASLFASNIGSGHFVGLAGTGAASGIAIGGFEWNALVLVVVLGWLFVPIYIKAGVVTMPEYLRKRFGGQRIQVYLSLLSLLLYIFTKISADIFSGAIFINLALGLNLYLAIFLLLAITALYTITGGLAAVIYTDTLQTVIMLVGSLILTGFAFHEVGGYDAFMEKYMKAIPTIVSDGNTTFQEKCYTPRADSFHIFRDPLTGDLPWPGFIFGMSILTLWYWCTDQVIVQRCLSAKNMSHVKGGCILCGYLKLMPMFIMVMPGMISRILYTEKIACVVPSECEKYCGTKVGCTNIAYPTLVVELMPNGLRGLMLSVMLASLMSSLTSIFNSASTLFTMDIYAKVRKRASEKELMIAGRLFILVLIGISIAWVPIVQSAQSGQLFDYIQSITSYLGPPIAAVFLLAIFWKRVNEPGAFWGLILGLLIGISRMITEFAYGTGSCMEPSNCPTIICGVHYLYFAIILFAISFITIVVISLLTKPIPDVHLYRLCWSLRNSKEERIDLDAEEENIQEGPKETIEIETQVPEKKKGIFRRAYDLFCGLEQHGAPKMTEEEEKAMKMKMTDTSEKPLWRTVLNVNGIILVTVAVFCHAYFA
Description: as §1, §2, §3

[2] = Table 2, NI: no inhibition at 625 µM
[3] = Table 3, TSA-201 cells, NI: no inhibition at 1000 µM
[4] = Table 2, TSA-201 cells, NI: no inhibition at 1000 µM, compounds 1-2 used as controls for in-house assay

SMILES: OC[C@H]1O[C@@H](c2nnc(Cc3ccccc3)o2)[C@H](O)[C@@H](O)[C@@H]1O [13a, 5-Benzyl-2-(β-D-glucopyranosyl)-1,3,4-oxadiazole]
- IC50 (SGLT2): 2.21 ± 0.58 µM
- SGLT2 inhibition (in words) (SGLT2): showed inhibitory effects
- IC50 [1, 2]: > 625 µM
- IC50 (SGLT1): 23.7 ± 6.14 µM

SMILES: OC[C@H]1O[C@@H](c2nc(Cc3ccccc3)n(-c3ccccc3)n2)[C@H](O)[C@@H](O)[C@@H]1O [19c]
- IC50 (SGLT2): 2.44 ± 0.85 µM
- IC50 [1, 2]: > 625 µM
- IC50 (SGLT1): 35.5 ± 9.56 µM

SMILES: OC[C@H]1O[C@@H](c2nc(-c3ccccc3)c[nH]2)[C@H](O)[C@@H](O)[C@@H]1O [24a]
- IC50 (SGLT2; [3]): 91.04 ± 0.56 µM
- IC50 (SGLT1; [3]): 245 ± 42 µM

SMILES: COc1ccc(Cc2nc([C@@H]3O[C@H](CO)[C@@H](O)[C@H](O)[C@H]3O)no2)cc1 [10b, 3-(β-D-Glucopyranosyl)-5-(4-methoxybenzyl)-1,2,4-oxadiazole]
- SGLT2 inhibition (in words) (SGLT2): complete loss of the inhibition
- IC50 (SGLT2; [4]): > 1000 µM
- IC50 [1, 2]: > 625 µM
- IC50 (SGLT1; [4]): > 1000 µM

SMILES: OC[C@H]1O[C@@H](c2nccc(Cc3ccccc3)n2)[C@H](O)[C@@H](O)[C@@H]1O [16a, 4-Benzyl-2-(β-D-glucopyranosyl)pyrimidine]
- IC50 (SGLT2): 17 ± 3.16 µM
- SGLT2 inhibition (in words) (SGLT2): inhibitory activity in the micromolar range
- IC50 [1, 2]: > 625 µM
- IC50 (SGLT1): 18 ± 3.92 µM

SMILES: OC[C@H]1O[C@@H](c2nnc(Cc3ccc(Cl)cc3)o2)[C@H](O)[C@@H](O)[C@@H]1O [13c, 5-(4-Chlorobenzyl)-2-(β-D-glucopyranosyl)-1,3,4-oxadiazole]
- SGLT2 inhibition (in words) (SGLT2): complete loss of the inhibition
- IC50 (SGLT2; [4]): > 1000 µM
- IC50 [1, 2]: > 625 µM
- IC50 (SGLT1; [4]): > 1000 µM

SMILES: OCCn1nc([C@@H]2O[C@H](CO)[C@@H](O)[C@H](O)[C@H]2O)nc1Cc1ccccc1 [19b]
- SGLT2 inhibition (in words) (SGLT2): complete loss of the inhibition
- IC50 (SGLT2; [4]): > 1000 µM
- IC50 [1, 2]: > 625 µM
- IC50 (SGLT1; [4]): > 1000 µM

SMILES: OC[C@H]1O[C@@H](c2nc(Cc3ccccc3)n[nH]2)[C@H](O)[C@@H](O)[C@@H]1O [19a]
- IC50 (SGLT2): 71.7 ± 10.6 µM
- fold weakening in the SGLT2 inhibition (SGLT2; 19a vs. 10a and 13a): 20-30 fold
- IC50 [1, 2]: > 625 µM
- IC50 (SGLT1): 19.6 ± 7.26 µM

SMILES: OC[C@H]1O[C@@H](c2nccc(Cc3ccc(Cl)cc3)n2)[C@H](O)[C@@H](O)[C@@H]1O [16c, 4-(4-Chlorobenzyl)-2-(β-D-glucopyranosyl)pyrimidine]
- SGLT2 inhibition (in words) (SGLT2): inactive
- IC50 (SGLT2; [4]): > 1000 µM
- IC50 [1, 2]: > 625 µM
- IC50 (SGLT1; [4]): > 1000 µM

SMILES: OC[C@H]1O[C@@H](c2noc(Cc3ccc(Cl)cc3)n2)[C@H](O)[C@@H](O)[C@@H]1O [10c, 5-(4-Chlorobenzyl)-3-(β-D-glucopyranosyl)-1,2,4-oxadiazole]
- SGLT2 inhibition (in words) (SGLT2): complete loss of the inhibition
- IC50 (SGLT2; [4]): > 1000 µM
- IC50 [1, 2]: > 625 µM
- IC50 (SGLT1; [4]): > 1000 µM

SMILES: OC[C@H]1O[C@@H](n2cc(Cc3ccccc3)nn2)[C@H](O)[C@@H](O)[C@@H]1O [compound 20]
- IC50 (SGLT2): 23.2 ± 1.86 µM
- IC50 (SGLT1): 101 ± 23.5 µM

SMILES: OC[C@H]1O[C@@H](c2nc(-c3ccc4ccccc4c3)cs2)[C@H](O)[C@@H](O)[C@@H]1O [23b]
- IC50 (SGLT2; [3]): > 1000 µM
- IC50 (SGLT1; [3]): > 1000 µM

SMILES: OC[C@H]1O[C@@H](c2nc(-c3ccc4ccccc4c3)n[nH]2)[C@H](O)[C@@H](O)[C@@H]1O [25b]
- IC50 (SGLT2; [3]): 17.7 ± 2.32 µM
- IC50 (SGLT1; [3]): 13 ± 2.88 µM

SMILES: OC[C@H]1O[C@@H](c2nc(Cc3ccccc3)c[nH]2)[C@H](O)[C@@H](O)[C@@H]1O [compound 18, 4(5)-Benzyl-2-(β-D-glucopyranosyl)imidazole]
- IC50 (SGLT2): 3.57 ± 0.42 µM
- times more effective (SGLT2 inhibition) (SGLT2; compared to 1,2,4-triazole 19a): ~ 20 times
- inhibition at 625 µM ([1]; Table 2, at 625 µM): 12%
- IC50 (SGLT1): 11.7 ± 2.48 µM

SMILES: CCOc1ccc(Cc2cc([C@@H]3O[C@H](CO)[C@@H](O)[C@H](O)[C@H]3O)ccc2Cl)cc1 [compound 2, dapagliflozin, reference compound]
- IC50 [1]: > 625 µM

SMILES: OC[C@H]1O[C@@H](n2cc(-c3ccc4ccccc4c3)nn2)[C@H](O)[C@@H](O)[C@@H]1O [21b]
- IC50 (SGLT2; [3]): 10.3 ± 2.18 µM
- factor by which the 2-naphthyl derivative is the stronger inhibitor of SGLT2 (SGLT2): ~ 7
- IC50 (SGLT1; [3]): 127 ± 21.6 µM

SMILES: OC[C@H]1O[C@@H](c2nnc(-c3ccccc3)[nH]2)[C@H](O)[C@@H](O)[C@@H]1O [25a]
- IC50 (SGLT2; [3]): 15 ± 2.74 µM
- IC50 (SGLT1; [3]): 125 ± 46.5 µM

SMILES: OC[C@H]1O[C@@H](c2nc(-c3ccc4ccccc4c3)c[nH]2)[C@H](O)[C@@H](O)[C@@H]1O [24b, 2-(β-D-glucopyranosyl)-4(5)-(2-naphthyl)-imidazole]
- IC50 (SGLT2; [3]): 3.5 ± 0.88 µM
- factor by which the 2-naphthyl derivative is the stronger inhibitor of SGLT2 (SGLT2): ~ 26
- IC50 (SGLT1; [3]): 11.9 ± 2.61 µM

SMILES: OC[C@H]1O[C@@H](n2cc(-c3ccccc3)nn2)[C@H](O)[C@@H](O)[C@@H]1O [21a]
- IC50 (SGLT2; [3]): 67.3 ± 10.9 µM
- IC50 (SGLT1; [3]): 167 ± 63.5 µM

SMILES: OC[C@H]1O[C@@H](c2nc(-c3ccccc3)cs2)[C@H](O)[C@@H](O)[C@@H]1O [23a]
- IC50 (SGLT2; [3]): > 1000 µM
- IC50 (SGLT1; [3]): > 1000 µM
